{"source": "patent US20110177038A1", "about": "“Inhibition of Tumor Growth via Peroxiredoxin 3” (THE JOHNS HOPKINS UNIVERSITY, priority 2002, published 2011)", "origin": "cited, not measured here", "system": "MCF7/ADR cells", "conditions": "free radical scavenger", "data": [{"compound": "CC(=O)C(=O)[O-].[Na+]", "note": "[sodium pyruvate]", "values": [{"measurement": "Inhibition of apoptosis after glucose withdrawal", "value": "sufficient to inhibit apoptosis"}]}]}
